By pIC50 is commonly meant −log10 of the IC50, conventionally taken in molar units.

Each structure is given as a SMILES string. pIC50: −log10 of the molar value.

Results on five compounds are retold here after patent US20030166694A1, “Glycinamides” (priority 2000, published 2003).

For one experiment, the target named is factor Xa, human (Homo sapiens, UniProt P00742). The experiment is described as follows: Inhibition of factor Xa (table title: Affinity to receptors). In kind it is biochemical. An excerpt: The inhibition of factor Xa by the compounds according to the invention and the measurement of the anticoagulant and antithrombotic activity can be determined by conventional in-vitro or in-vivo methods. A suitable method is described, for example, by J. Hauptmann et al. in Thrombosis and Haemostasis 1990, 63, 220-223.
The inhibition of factor Xa can be measured, for example, by the method of T. Hara et al. in Thromb. Haemostas. 1994, 71, 314-319.

The target of a further experiment is TF/VIIa (Homo sapiens, UniProt P08709). The experiment is described as follows: Inhibition of TF/VIIa (table title: Affinity to receptors). In kind it is biochemical. An excerpt: The inhibition of factor VIIa by the compounds according to the invention and the measurement of the anticoagulant and antithrombotic activity can be determined by conventional in-vitro or in-vivo methods. A conventional method for the measurement of the inhibition of factor VIIa is described, for example, by H. F. Ronning et al. in Thrombosis Research 1996, 84, 73-81.
Chain of TF/VIIa (P08709 213-466 limits assumed): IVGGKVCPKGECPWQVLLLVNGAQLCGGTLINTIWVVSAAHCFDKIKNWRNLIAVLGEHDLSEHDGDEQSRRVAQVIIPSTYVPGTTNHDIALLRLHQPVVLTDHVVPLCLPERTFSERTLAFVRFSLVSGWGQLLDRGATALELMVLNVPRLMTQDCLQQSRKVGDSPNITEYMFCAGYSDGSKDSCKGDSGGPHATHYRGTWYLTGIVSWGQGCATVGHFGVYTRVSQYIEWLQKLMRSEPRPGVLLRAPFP
Chain of TF/VIIa (P08709 61-212 limits assumed): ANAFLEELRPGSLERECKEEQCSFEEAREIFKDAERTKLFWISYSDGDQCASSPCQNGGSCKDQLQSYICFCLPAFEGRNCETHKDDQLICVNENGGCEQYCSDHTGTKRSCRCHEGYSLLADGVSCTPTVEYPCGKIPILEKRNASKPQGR
Chain of TF/VIIa (P13726 33-295 partner): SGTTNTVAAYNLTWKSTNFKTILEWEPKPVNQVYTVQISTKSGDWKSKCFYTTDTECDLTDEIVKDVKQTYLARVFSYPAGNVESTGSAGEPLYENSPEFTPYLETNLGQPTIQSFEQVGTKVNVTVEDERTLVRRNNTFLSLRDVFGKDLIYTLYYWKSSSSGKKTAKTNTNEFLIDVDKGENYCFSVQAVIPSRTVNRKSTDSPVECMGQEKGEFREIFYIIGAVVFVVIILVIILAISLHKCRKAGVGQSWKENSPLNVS

Chain of factor Xa, human (P00742 235-488 limits assumed): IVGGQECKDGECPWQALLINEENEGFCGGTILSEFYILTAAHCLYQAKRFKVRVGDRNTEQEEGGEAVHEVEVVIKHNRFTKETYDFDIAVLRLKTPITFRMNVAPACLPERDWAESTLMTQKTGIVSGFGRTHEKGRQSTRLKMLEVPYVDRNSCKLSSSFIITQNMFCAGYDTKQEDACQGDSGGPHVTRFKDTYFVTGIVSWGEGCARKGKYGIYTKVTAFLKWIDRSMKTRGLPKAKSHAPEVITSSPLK
Chain of factor Xa, human (P00742 41-179 limits assumed): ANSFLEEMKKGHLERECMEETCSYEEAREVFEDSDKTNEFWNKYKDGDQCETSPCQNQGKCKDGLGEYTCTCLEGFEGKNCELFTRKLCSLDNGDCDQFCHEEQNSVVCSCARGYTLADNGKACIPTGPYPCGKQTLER

Regarding `CC(C)CN(CC(=O)Nc1ccc(-c2ccccc2S(N)(=O)=O)cc1)c1cccc(C(=N)N)c1` [N-(2′-aminosulfonylbiphenyl-4-yl)-2-[(3-amidinophenyl)-N-isobutylamino]acetamide], the pIC50 against factor Xa, human was 6.32; against TF/VIIa, 6.43.
The like results for `CCCN(CC(=O)Nc1ccc(-c2ccccc2S(N)(=O)=O)cc1)c1cccc(C(=N)N)c1` [N-(2′-aminosulfonylbiphenyl-4-yl)-2-[(3-amidinophenyl)-N-propylamino]acetamide] were, in that order, 6.89 and 7.36.
In the case of `CN(CC(=O)Nc1ccc(-c2ccccc2S(N)(=O)=O)cc1)c1cccc(C(=N)N)c1` [N-(2′-aminosulfonylbiphenyl-4-yl)-2-[(3-amidinophenyl)-N-methylamino]acetamide], the pIC50 at factor Xa, human was 8.00; against TF/VIIa it was 7.60.
With `N=C(N)c1cccc(N(CC(=O)Nc2ccc(-c3ccccc3S(N)(=O)=O)cc2)Cc2ccccc2)c1` [N-(2′-aminosulfonylbiphenyl-4-yl)-2-[(3-amidinophenyl)-N-benzylamino]acetamide], the pIC50 against factor Xa, human is 7.09; on TF/VIIa, 7.82.
`CCCN(CC(=O)Nc1ccc(-c2ccccc2S(C)(=O)=O)cc1)c1cccc(C(=N)N)c1` [N-(2′-methylsulfonylbiphenyl-4-yl)-2-[(3-amidinophenyl)-N-propylamino]acetamide]: the negative logarithm of the IC50 (pIC50) at factor Xa, human is 6.92; at TF/VIIa, 7.51.
